# US5840684A, “Glycopeptide antibiotic derivatives” (Eli Lilly and Company, priority 1995, dated 1998)
# Experiments:
# [1] = test system: Entercoccus faecium 180-1; assay: broth micro-dilution MIC; assay type: cell-based
# Method: (§1) The MIC's were determined using a standard broth micro-dilution assay.
# [2] = test system: Staphylococcus aureus 447; assay: broth micro-dilution MIC; assay type: cell-based
# Method: as §1
# [3] = test system: Staphylococcus aureus 489; assay: broth micro-dilution MIC; assay type: cell-based
# Method: as §1
# [4] = test system: Staphylococcus aureus 491; assay: broth micro-dilution MIC; assay type: cell-based
# Method: as §1
# [5] = test system: Staphylococcus aureus SA1199A; assay: broth micro-dilution MIC; assay type: cell-based
# Method: as §1
# Entercoccus faecium 180 = assay: broth micro-dilution MIC; assay type: cell-based; details: Entercoccus faecium 180
# Method: (§2) The formula I compounds have in vitro and in vivo activity against Gram-positive pathogenic bacteria. The MIC's were determined using a standard broth micro-dilution assay.
# Entercoccus faecium 2041 = assay: broth micro-dilution MIC; assay type: cell-based; details: Entercoccus faecium 2041
# Method: as §2
# [6] = test system: Enterococcus gallinarum 245; assay: broth micro-dilution MIC; assay type: cell-based; details: Enterococcus gallinarum 245
# Method: as §2
# [7] = test system: vancomycin-resistant enterococci; assay: broth micro-dilution, mean geometric MIC; assay type: cell-based, Enterococcus faecium and Enterococcus faecalis; details: enterococci, 24-hour incubation
# [8] = test system: vancomycin-susceptible enterococci; assay: broth micro-dilution, mean geometric MIC; assay type: cell-based, Enterococcus faecium and Enterococcus faecalis; details: enterococci, 24-hour incubation
# [9] = test system: Staphylococcus aureus S13E; assay type: cell-based
# Method: as §1
# [10] = test system: Staphylococcus aureus SA1199B; assay type: cell-based
# Method: as §1
# Entercoccus faecium 276 = assay: broth micro-dilution MIC; assay type: cell-based
# Method: as §1
# [11] = test system: Staphylococcus aureus 446; assay: broth micro-dilution MIC; assay type: cell-based
# Method: as §1
# [12] = test system: Staphylococcus aureus SA1199; assay: broth micro-dilution MIC; assay type: cell-based
# Method: as §1
# [13] = test system: Staphylococcus aureus X400; assay: broth micro-dilution MIC; assay type: cell-based
# Method: as §1
# [14] = test system: Staphylococcus aureus X778; assay: broth micro-dilution MIC; assay type: cell-based
# Method: as §1
# [15] = test system: Streptococcus pyogenes C203; assay: broth micro-dilution MIC; assay type: cell-based
# Method: as §1
# [16] = test system: Staphylococcus epidermidis 270; assay: broth micro-dilution MIC; assay type: cell-based
# Method: as §2
# [17] = test system: Staphylococcus haemolyticus 105; assay: broth micro-dilution MIC; assay type: cell-based
# Method: as §2
# [18] = test system: Staphylococcus haemolyticus 415; assay: broth micro-dilution MIC; assay type: cell-based
# Method: as §2
# [19] = test system: Streptococcus pneumoniae P1; assay: broth micro-dilution MIC; assay type: cell-based
# Method: as §2
Structure (SMILES),MIC [1],MIC [2],MIC [4],MIC [5],MIC (Entercoccus faecium 180),MIC (Entercoccus faecium 2041),MIC [6],"mean geometric MIC, Vancomycin Resistant Strains [7]","mean geometric MIC, Vancomycin Sensitive Strains [8]",MIC [9],MIC (Entercoccus faecium 276),MIC [11],MIC [12],MIC [13],MIC [14],MIC [15],MIC [16],MIC [17],MIC [18],MIC [19],other results
CCCCCC1CCC(c2ccc(CNC3(C)CC(OC4C(Oc5c6cc7cc5Oc5ccc(cc5Cl)C(OC5CC(C)(N)C(O)C(C)O5)C5NC(=O)C(NC(=O)C7NC(=O)C(CC(N)=O)NC(=O)C(NC(=O)C(CC(C)C)NC)C(O)c7ccc(c(Cl)c7)O6)c6ccc(O)c(c6)-c6c(O)cc(O)cc6C(C(=O)O)NC5=O)OC(CO)C(O)C4O)OC(C)C3O)cc2)CC1 (centres unmarked) [Compound 34],2 µg/mL,8 µg/mL,8 µg/mL,2 µg/mL,4 µg/mL,8 µg/mL,4 µg/mL,4.0 µg/mL,3.4 µg/mL,–,–,–,–,–,–,–,–,–,–,–,MIC [3]: 8 µg/mL
CNC(CC(C)C)C(=O)NC1C(=O)NC(CC(N)=O)C(=O)NC2C(=O)NC3C(=O)NC(C(=O)NC(C(=O)O)c4cc(O)cc(O)c4-c4cc3ccc4O)C(OC3CC(C)(N)C(O)C(C)O3)c3ccc(c(Cl)c3)Oc3cc2cc(c3OC2OC(CO)C(O)C(O)C2OC2CC(C)(NCc3ccc(N4CCN(C)CC4)cc3)C(O)C(C)O2)Oc2ccc(cc2Cl)C1O (centres unmarked) [Compound 146],≤ 0.06 µg/mL,2 µg/mL,1 µg/mL,≤ 0.06 µg/mL,8 µg/mL,0.5 µg/mL,0.5 µg/mL,–,1.5 µg/mL,0.5 µg/mL,1 µg/mL,0.5 µg/mL,≤ 0.06 µg/mL,0.5 µg/mL,≤ 0.06 µg/mL,≤ 0.06 µg/mL,2 µg/mL,2 µg/mL,4 µg/mL,≤ 0.06 µg/mL,MIC [10]: ≤ 0.06 µg/mL
CNC(CC(C)C)C(=O)NC1C(=O)NC(CC(N)=O)C(=O)NC2C(=O)NC3C(=O)NC(C(=O)NC(C(=O)O)c4cc(O)cc(O)c4-c4cc3ccc4O)C(OC3CC(C)(N)C(O)C(C)O3)c3ccc(c(Cl)c3)Oc3cc2cc(c3OC2OC(CO)C(O)C(O)C2OC2CC(C)(NCc3ccc(-c4ccc(OC)cc4)s3)C(O)C(C)O2)Oc2ccc(cc2Cl)C1O (centres unmarked) [Compound 71],–,4 µg/mL,2 µg/mL,–,4 µg/mL,1 µg/mL,8 µg/mL,11 µg/mL,0.57 µg/mL,1 µg/mL,2 µg/mL,4 µg/mL,1 µg/mL,1 µg/mL,2 µg/mL,–,2 µg/mL,16 µg/mL,8 µg/mL,–,MIC [10]: 4 µg/mL
CNC(CC(C)C)C(=O)NC1C(=O)NC(CC(N)=O)C(=O)NC2C(=O)NC3C(=O)NC(C(=O)NC(C(=O)O)c4cc(O)cc(O)c4-c4cc3ccc4O)C(OC3CC(C)(N)C(O)C(C)O3)c3ccc(c(Cl)c3)Oc3cc2cc(c3OC2OC(CO)C(O)C(O)C2OC2CC(C)(NCC=Cc3ccccc3)C(O)C(C)O2)Oc2ccc(cc2Cl)C1O (centres unmarked) [Compound 38],≤ 0.06 µg/mL,–,0.5 µg/mL,–,≤ 0.06 µg/mL,≤ 0.06 µg/mL,–,4.0 µg/mL,0.42 µg/mL,≤ 0.06 µg/mL,0.5 µg/mL,0.5 µg/mL,1 µg/mL,1 µg/mL,0.5 µg/mL,≤ 0.06 µg/mL,0.5 µg/mL,1 µg/mL,1 µg/mL,≤ 0.06 µg/mL,–
CNC(CC(C)C)C(=O)NC1C(=O)NC(CC(N)=O)C(=O)NC2C(=O)NC3C(=O)NC(C(=O)NC(C(=O)O)c4cc(O)cc(O)c4-c4cc3ccc4O)C(OC3CC(C)(N)C(O)C(C)O3)c3ccc(c(Cl)c3)Oc3cc2cc(c3OC2OC(CO)C(O)C(O)C2OC2CC(C)(NCc3ccc(N4CCC(C)CC4)cc3)C(O)C(C)O2)Oc2ccc(cc2Cl)C1O (centres unmarked) [Compound 129],≤ 0.06 µg/mL,1 µg/mL,0.5 µg/mL,≤ 0.06 µg/mL,4 µg/mL,≤ 0.06 µg/mL,0.125 µg/mL,27 µg/mL,1.52 µg/mL,–,0.125 µg/mL,2 µg/mL,–,–,–,≤ 0.06 µg/mL,1 µg/mL,4 µg/mL,4 µg/mL,≤ 0.06 µg/mL,MIC [3]: ≤ 0.06 µg/mL
CNC(CC(C)C)C(=O)NC1C(=O)NC(CC(N)=O)C(=O)NC2C(=O)NC3C(=O)NC(C(=O)NC(C(=O)O)c4cc(O)cc(O)c4-c4cc3ccc4O)C(OC3CC(C)(N)C(O)C(C)O3)c3ccc(c(Cl)c3)Oc3cc2cc(c3OC2OC(CO)C(O)C(O)C2OC2CC(C)(NCC3=CCC4CC3C4(C)C)C(O)C(C)O2)Oc2ccc(cc2Cl)C1O (centres unmarked) [Compound 170],≤ 0.06 µg/mL,0.5 µg/mL,0.5 µg/mL,≤ 0.06 µg/mL,2 µg/mL,≤ 0.06 µg/mL,4 µg/mL,8.0 µg/mL,0.22 µg/mL,–,0.5 µg/mL,2 µg/mL,1 µg/mL,0.5 µg/mL,1 µg/mL,≤ 0.06 µg/mL,1 µg/mL,4 µg/mL,4 µg/mL,≤ 0.06 µg/mL,–
CNC(CC(C)C)C(=O)NC1C(=O)NC(CC(N)=O)C(=O)NC2C(=O)NC3C(=O)NC(C(=O)NC(C(=O)O)c4cc(O)cc(O)c4-c4cc3ccc4O)C(OC3CC(C)(N)C(O)C(C)O3)c3ccc(c(Cl)c3)Oc3cc2cc(c3OC2OC(CO)C(O)C(O)C2OC2CC(C)(NCc3ccc(O)c(O)c3)C(O)C(C)O2)Oc2ccc(cc2Cl)C1O (centres unmarked) [Compound 145],≤ 0.06 µg/mL,1 µg/mL,0.5 µg/mL,≤ 0.06 µg/mL,4 µg/mL,–,–,–,1.3 µg/mL,0.125 µg/mL,0.125 µg/mL,0.5 µg/mL,–,–,0.125 µg/mL,≤ 0.06 µg/mL,1 µg/mL,2 µg/mL,8 µg/mL,≤ 0.06 µg/mL,MIC [10]: ≤ 0.06 µg/mL; MIC [3]: ≤ 0.06 µg/mL
CCN(CC)CCOc1ccc(CNC2(C)CC(OC3C(Oc4c5cc6cc4Oc4ccc(cc4Cl)C(OC4CC(C)(N)C(O)C(C)O4)C4NC(=O)C(NC(=O)C6NC(=O)C(CC(N)=O)NC(=O)C(NC(=O)C(CC(C)C)NC)C(O)c6ccc(c(Cl)c6)O5)c5ccc(O)c(c5)-c5c(O)cc(O)cc5C(C(=O)O)NC4=O)OC(CO)C(O)C3O)OC(C)C2O)cc1 (centres unmarked) [Compound 83],0.125 µg/mL,2 µg/mL,0.5 µg/mL,–,8 µg/mL,0.5 µg/mL,0.5 µg/mL,54 µg/mL,1.7 µg/mL,0.125 µg/mL,–,1 µg/mL,2 µg/mL,2 µg/mL,0.5 µg/mL,≤ 0.06 µg/mL,2 µg/mL,2 µg/mL,4 µg/mL,≤ 0.06 µg/mL,MIC [10]: 1 µg/mL
CNC(CC(C)C)C(=O)NC1C(=O)NC(CC(N)=O)C(=O)NC2C(=O)NC3C(=O)NC(C(=O)NC(C(=O)O)c4cc(O)cc(O)c4-c4cc3ccc4O)C(OC3CC(C)(N)C(O)C(C)O3)c3ccc(c(Cl)c3)Oc3cc2cc(c3OC2OC(CO)C(O)C(O)C2OC2CC(C)(NCc3ccc(NC(=O)c4cccc(F)c4)cc3)C(O)C(C)O2)Oc2ccc(cc2Cl)C1O (centres unmarked) [Compound 194],≤ 0.06 µg/mL,0.5 µg/mL,≤ 0.06 µg/mL,≤ 0.06 µg/mL,≤ 0.06 µg/mL,≤ 0.06 µg/mL,2 µg/mL,2.4 µg/mL,0.083 µg/mL,≤ 0.06 µg/mL,–,≤ 0.06 µg/mL,0.5 µg/mL,≤ 0.06 µg/mL,0.5 µg/mL,≤ 0.06 µg/mL,0.5 µg/mL,1 µg/mL,2 µg/mL,≤ 0.06 µg/mL,–
